Test results: PMC6491934 (Frontiers in Microbiology, 2019)
Read-outs that look alike come from different tables or passages of the source.

Key:
PrtP [1] = test: culture of Lactococcus lactis subsp. lactis BGMN1-501 in chemically defined growth medium (CDM) with addition of 0.5% casitone; cell-free supernatant; conditions: Lactococcus lactis subsp. lactis BGMN1-501, 30°C, up to 16 h
PrtP [2] = test: proteinase extract of BGMN1-501 cells in 0.1 mol/L sodium phosphate buffer (NaPi, pH 7); conditions: Lactococcus lactis subsp. lactis BGMN1-501, up to 20 h
proteinase PrtP [3] = type: in vitro ADME, Lactococcus lactis subsp. lactis BGMN1-501
Description: For the purification and mass spectrometric analysis of the bacteriocin in Lactococcus lactis subsp. lactis BGMN1-501, the strain was grown at 30°C for 16 h in 500 mL of chemically defined growth medium (CDM)with addition of 0.5% casitone (Difco Laboratories, Becton Dickinson and Company, Franklin Lakes, NJ, United States). The bacteriocin was purified following the protocol of [Mirkovic et al. (2016)]. Briefly, the cells were removed by centrifugation (4,500 × g for 30 min at 4°C), while the supernatant was saturated up to 40% with ammonium sulfate, and precipitated with stirring for 2 h at 4°C. The precipitate was collected by centrifugation (10,000 × g for 30 min at 4°C) and then dissolved in 5 mL of Milli-Q water containing 0.1% trifluoroacetic acid. The bacteriocin was further purified using reverse-phase high-performance liquid chromatography (HPLC). […] The chromatography was monitored by measuring absorbance at 215 nm. […] Both recombinant peptides and the reaction mixtures of LcnB and PrtP were analyzed using the same reverse-phase chromatography as used for bacteriocin purification (see Section “Bacteriocin LcnB Purification From Lactococcus lactis subsp. lactis BGMN1-501”).

[4] = system: LcnB receptor on sensitive BGMN1-596 cells (man-PTS); test: Bacteriocin competition assay; type: cell-based, Lactococcus lactis subsp. lactis; conditions: 10 μL of 62.5–1,000 μg/mL LcnB^∗ adsorbed 30 min at room temperature, then 50 μL BGMN1-501 culture, overnight 30°C
Description: The possibility of truncated peptide LcnB^∗ to compete with wild type LcnB for binding to its receptor molecule was tested in bacteriocin competition assay. Bacteriocin assay was prepared, as explained above. Before addition of bacteriocin producer, 10 μL of increasing concentrations (62.5–1,000 μg/mL) of LcnB^∗ was added to the wells made in soft agar and left for 30 min at room temperature to be completely adsorbed. After that, 50 μL of fresh BGMN1-501 culture was added to the wells, and incubated overnight at 30°C to produce growth inhibition zones.

proteinase PrtP [5] = type: in vitro ADME, Lactococcus lactis subsp. lactis BGMN1-501; remark: listed apart in the source
Description: Bacteriocin activity of BGMN1-501, as well as of recombinantly produced bacteriocin was evaluated by an agar-well diffusion test ([Lozo et al., 2004]). The activity of HPLC-obtained fractions and of chemically synthesized bacteriocin was evaluated by spot-on-lawn assays. Soft GM17 agar (0.75%, w/v) containing sensitive strain was overlaid onto thin GM17 agar plates. After soft agar solidified, 10 μL of sample was spotted and plates were incubated at 30°C overnight. Clear zones of growth inhibition in the spots were used as positive signals. Lactococcus lactis subsp. lactis BGMN1-596 was used in all tests as sensitive strain. Proteinase extract was prepared as following: BGMN1-501 was grown on milk citrate agar plates, collected and re-suspended in 0.1 mol/L sodium phosphate buffer (NaPi, pH 7), incubated at room temperature for 30 min, pelleted by centrifugation and supernatants were collected prior to reactions. In vitro testing of effect of proteinase extract on bacteriocin activity was done as previously described ([Vukotic et al., 2015]), except that recombinant bacteriocins were used as substrates in the reactions.

BGMN1-596 = test: Glucose-uptake inhibition assay (growth of BGMN1-596 in GM17); type: cell-based, Lactococcus lactis subsp. lactis; conditions: chemically synthetized LcnB^∗, 0–1,000 μg/mL (highest concentration), BGMN1-596 5% inoculum in GM17, OD 600 nm over 6 h, triplicate
Description: To test whether truncated peptide can interfere with glucose import, growth of BGMN1-596 in GM17 with added LcnB^∗ was monitored. Fresh overnight culture, grown in GM17, was inoculated at 5% to fresh media, and saturated with increased concentrations (0–1,000 μg/mL) of chemically synthetized LcnB^∗. As a control, the same inoculum was made in media without glucose. Bacterial growth was monitored in microtitar plates by OD measurement at 600 nm at different time points for 6h. The assay was done in triplicate.

[6] = system: Lactococcus lactis subsp. lactis BGMN1-596; test: Spot-on-lawn bacteriocin activity assay; type: cell-based; conditions: sensitive strain BGMN1-596, 30°C overnight
Description: The activity of HPLC-obtained fractions and of chemically synthesized bacteriocin was evaluated by spot-on-lawn assays. Soft GM17 agar (0.75%, w/v) containing sensitive strain was overlaid onto thin GM17 agar plates. After soft agar solidified, 10 μL of sample was spotted and plates were incubated at 30°C overnight. Clear zones of growth inhibition in the spots were used as positive signals. Lactococcus lactis subsp. lactis BGMN1-596 was used in all tests as sensitive strain.

| Sequence | cleaved bond (PrtP [1]) | cleaved bond (PrtP [2]) | PrtP cleavage site in the peptide (proteinase PrtP [3]) | amount of peptide left after PrtP hydrolysis (proteinase PrtP [3]) | effect of pretreatment on bacteriocin activity of wild type LcnB (competition for the receptor) [4] | bacteriocin activity after incubation with PrtP extract (proteinase PrtP [5]) | bacteriocin activity after incubation with PrtP extract (proteinase PrtP [5]; pH 7) | effect on bacterial growth (interference with glucose import) (BGMN1-596) | antimicrobial activity (growth inhibition zone) ([6]; chemically synthesized peptide (Biomatik), 10 μL spotted, up to 1 mg/mL) | antimicrobial activity (growth inhibition zone) ([6]; recombinant peptide (pMAL system, E. coli ER2523), 50–500 μg/mL) |
| --- | --- | --- | --- | --- | --- | --- | --- | --- | --- | --- |
| SLQYVMSAGPYTWYKDTRTGKTICKQTIDTASYTFGVMAEGWGKTFH | methionine6-serine7 | methionine6-serine7, major, 3 h |  |  |  |  |  |  |  |  |
| SLQYVMSAGPYTWYKDTRTGKTICKQTIDTASYTFGVMAEGWGKTFH [LcnB, bacteriocin of Lactococcus lactis subsp. lactis BGMN1-501, mature peptide, produced recombinantly in E. coli ER2523] |  |  | between sixth and seventh amino acid | drastically reduced | did not influence the latter bacteriocin activity of wild type molecule | no activity could be detected | reduced the bacteriocin activity | did not alter bacterial growth | inactive | strong antimicrobial activity |
